Earlier results as cited in patent US6562605B1, “Extraction of water soluble biomaterials from fluids using a carbon dioxide/surfactant mixture” (Genencor International, Inc., priority 1995, dated 2003).
Read-outs that look alike come from different tables or passages of the source.

[1] = to 388 bar, 50° C. printed at first prior art line

Row | Compound | Solubility in carbon dioxide (at 377 bar) | Solubility in carbon dioxide [1] | further results
1 | CCCCCCS(=O)(=O)[O-].[Na+] [Alkyl sulfonate (C6, sodium salt, Fluka)] | – | insoluble to 388 bar (50° C.) | –
2 | CCCCCCCCS(=O)(=O)[O-].[Na+] [Alkyl sulfonate (Niacet, NAS 08)] | – | – | Solubility in carbon dioxide (to 585 bar): insoluble to 585 bar
3 | CCCCCCCCCCCCCC[N+](C)(C)C.[Br-] [Tetradecyl trimethyl ammonium bromide] | – | insoluble to 388 bar | –

Further lines, with some results ahead:

Row | Solubility in carbon dioxide (at 377 bar) | Compound | Solubility in carbon dioxide [1] | further results
4 | slightly soluble at 377 bar | Sorbitan monostearate [Sorbitan monostearate (Fluka, Span 60)] | – | –
5 | slightly soluble at 377 bar | Sorbitan trioleate [Sorbitan trioleate (Fluka, Span 80)] | – | –
